Measurements reported in article PMC9228955, “Synthesis, Physicochemical, Labeling and In Vivo Characterization of ^44Sc-Labeled DO3AM-NI as a Hypoxia-Sensitive PET Probe” (Pharmaceuticals, 2022).

Experiments:
KB tumors [1] = test: In vivo PET/MRI imaging of KB tumor-bearing mice, quantitative SUV analysis; set-up: species or system CB17 SCID mice; details: 240 min after injection
Description: The tumor-specific accumulation of [^44Sc]Sc(DO3AM-NI) and [^68Ga]Ga(DO3AM-NI) was investigated by PET/MRI imaging 90 and 240 min after radiotracer injection using KB tumor-bearing mice. The subcutaneously growing KB tumors were clearly visualized using [^44Sc]Sc(DO3AM-NI) 90 and 240 min post injection with relatively higher SUVmean and SUVmax values (SUVmean: 1.46 ± 0.32 and SUVmax: 2.35 ± 0.47 at 90 min and SUVmean: 0.67 ± 0.03 and SUVmax: 1.55 ± 0.28 at 240 min). Lower accumulation was found in the same KB tumors by using the ^68Ga-labeled molecule (SUVmean: 0.79 ± 0.10, SUVmax: 1.94 ± 0.40 at 90 min and SUVmean: 0.51 ± 0.09 and SUVmax: 1.23 ± 0.10 at 240 min); however, this difference between the radiotracers was not significant (Figure 4E). […] In contrast, no significant differences were found between the T/M SUV values of the two radiotracers 90 min post injection (Figure 4F).
(§1) For tumor induction, SCID mice were injected with 5x10^6 KB tumor cells in 0.9% NaCl (100 µL) subcutaneously into the left shoulder area. The tumor growth was assessed by caliper measurements, and tumor size was calculated using the following formula: (largest diameter × smallest diameter^2)/2. In vivo experiments were carried out approximately 13 ± 1 days after […] injection of tumor cells at the tumor volume of approximately 110 mm^3.
(§2) For in vivo imaging studies, healthy control and KB tumor-bearing CB17 SCID mice were injected with 8.42 ± 0.38 MBq of ^68Ga- or ^44Sc-labeled DO3AM-NI via the lateral tail vein 13 ± 1 days after the inoculation of KB tumor cells. Then, 65 and 225 min after radiotracer injection, mice were anaesthetized by 3% isoflurane (Forane) with a dedicated small animal anesthesia device and whole-body T1-weighted MRI scans were performed (3D GRE EXT multi-FOV; TR/TE 15/2 ms; phase: 100; FOV 60 mm; NEX 2) using the preclinical nanoScan PET/MRI system with 1 Tesla magnetic field (Mediso Ltd., Hungary). After MRI imaging, 20 min static whole-body PET scans were acquired (90 min and 4 h after radiotracer injection).
Quantitative radiotracer uptake was expressed in terms of standardized uptake value (SUV), SUV = [VOI activity (Bq/mL)]/[injected activity (Bq)/animal weight (g)], assuming a density of 1 g/mL. Volumes of interest (VOI) were manually drawn around the edge of the organ or tumor activity using the InterView™ FUSION (Mediso Ltd., Hungary) image analysis software. Tumor-to-muscle (T/M) ratios were computed as the ratio between the activity in the tumor VOI and in the background (muscle) VOI. Skeletal muscles of the right shoulder area were used as background.

KB tumors [2] = test: Ex vivo biodistribution in KB tumor xenografts; set-up: species or system CB17 SCID mice; details: for KB tumor uptake: 13 ± 1 days after subcutaneous tumor induction, n = 5, mean ± SD
Description: For the assessment of the accumulation in the tumors of [^44Sc]Sc(DO3AM-NI) and [^68Ga]Ga(DO3AM-NI), ex vivo biodistribution studies were performed 90 and 240 min post injection using KB tumor xenografts.
as §1
(§3) For the determination of ex vivo biodistribution of the radiotracers, control and KB tumor-bearing mice were injected intravenously with 8.42 ± 0.38 MBq of ^68Ga- or ^44Sc-labeled DO3AM-NI via the tail vein. Mice were euthanized with 5% isoflurane 90 min or 4 h after intravenous radiotracer injection. Three tissue samples were taken from the selected organs, and their weight and radioactivity were measured with a calibrated gamma counter (Perkin-Elmer Packard Cobra, Waltham, MA, USA). The radiotracer uptake was expressed as %ID/g tissue.

[3] = Stability of labeled complexes in mouse plasma, Na2H2EDTA and oxalic acid by radio-HPLC; assay type: in vitro ADME
Description: (§4) Subsequently, the octanol/water partition coefficient (logP) of the labeled complexes was determined to be −3.89 for [^68Ga]Ga(DO3AM-NI) and −2.59 for [^44Sc]Sc(DO3AM-NI). […] To assess the labeled compounds’ stability, the chelates were mixed with the solution of mouse plasma, Na2H2EDTA and oxalic acid, respectively. Aliquots were then taken at different time points (0, 60, 120 and 240 min) and injected into the radio-HPLC column, and the chromatograms were analyzed. After 240 min, the RCP of the samples was above 93% in all three cases.
A 10 µL volume of [^68Ga]Ga(DO3AM-NI) and [^44Sc]Sc(DO3AM-NI) solution was added to the solution of 90 µL of mouse plasma, Na2H2EDTA (0.01 M) and oxalic acid (0.01 M), respectively. Samples were analyzed by radio-HPLC at the beginning and after 60, 120 and 240 min. The analytical conditions were the same as detailed for the quality control of the labeled compound.

[4] = Ex vivo biodistribution in healthy control SCID mice; set-up: species or system CB17 SCID mice; details: mean ± SD
Description: Ex vivo biodistribution studies were carried out 90 min and 240 min after intravenous injection of ^44Sc- or ^68Ga-labeled DO3AM-NI, and the accumulated activities of the organs and tissues were determined using a gamma counter. By the quantitative analysis of the ex vivo data, significant differences were found between the %ID/g values when ^44Sc- and ^68Ga-labeled DO3AM-NI accumulations were compared. […] In contrast, e.g., [^18F]fluorine- [28], [^131I]iodine- [29], [^99mTc]technetium- [30] and [^64Cu]copper-labeled nitroimidazole-based probes, due to their chemical properties, were mainly metabolized via the liver, and the large abdominal accumulation impaired the evaluation of abdominal tumors in the PET images. The ^44Sc- and ^68Ga-labeled nitroimidazole derivatives had more favorable properties in terms of the reporting and evaluation of PET images and due to their rapid elimination through the urinary system.
as §3

[5] = In vivo PET/MRI imaging of healthy control SCID mice, quantitative SUV analysis; set-up: species or system CB17 SCID mice; details: 90 and 240 min after tracer injection
Description: The biodistribution of ^44Sc- and ^68Ga-labeled DO3AM-NI was investigated using healthy control and KB tumor-bearing SCID mice. PET/MRI imaging and ex vivo studies were performed 90 and 240 min after intravenous injection of ^44Sc- or ^68Ga-labeled DO3AM-NI. By the qualitative analysis of the PET/MRI images, the kidneys and the bladder with urine were clearly visualized using both radiotracers at each investigated time point; however, in other abdominal and thoracic organs, low uptake was observed.
as §2, with “After MRI imaging, 20 min static whole-body PET scans were acquired (90 min and 4 h after radiotracer injection).” left out
Quantitative radiotracer uptake was expressed in terms of standardized uptake value (SUV), SUV = [VOI activity (Bq/mL)]/[injected activity (Bq)/animal weight (g)], assuming a density of 1 g/mL. […]

[6] = Octanol/water partition coefficient (logP) of labeled complexes; assay type: physicochemical; details: 1-octanol/water, triplicates
Description: as §4
A 10 µL volume of [^68Ga]Ga(DO3AM-NI) and [^44Sc]Sc(DO3AM-NI) solution (~5 MBq) was mixed with 500 µL of 1-octanol and 490 µL of water in an Eppendorf vial, respectively. The mixture was shaken with a vortex shaker (600 rpm) for 10 min and centrifuged (6000 rpm) for 5 min. Then, 100 µL from the octanol phase and 1 μL from the aqueous phase were pipetted into vials, and the aqueous aliquot was diluted to 100 µL with water in order to minimize the effects of sample geometry and the high difference of activity concentrations in the two solvents. The radioactivity of the fractions was determined with a gamma counter. The measurements were performed in triplicates for both labeled compounds.

**Q.** Which “tumor-to-muscle ratio T/M SUVmax” value (KB tumors [1]) does the source give for `O=C([O-])CN1CCN(CC(=O)[O-])CCN(CC(=O)NCCn2ccnc2[N+](=O)[O-])CCN(CC(=O)[O-])CC1.[68Ga+3]` [[^68Ga]Ga(DO3AM-NI)] here?
**A.** 41.72 ± 13.61

**Q.** And the “tumor-to-muscle ratio T/M SUVmean” value (KB tumors [1])?
**A.** 85.66 ± 6.06

**Q.** And the “T/M (tumor-to-muscle ratio)” value (KB tumors [2]; 90 min after injection)?
**A.** 6.28 ± 1.11

**Q.** What about the KB tumor uptake (KB tumors [2]; 90 min after injection) of the same compound?
**A.** 0.62 ± 0.10 %ID/g

**Q.** And the “T/M (tumor-to-muscle ratio)” value (KB tumors [2]; 240 min after injection)?
**A.** 7.51 ± 1.13

**Q.** And the KB tumor uptake (KB tumors [2]; 240 min after injection)?
**A.** 0.46 ± 0.07 %ID/g

**Q.** And the “RCP after 240 min” value ([3]; Na2H2EDTA (0.01 M))?
**A.** above 93%

**Q.** And the “RCP after 240 min” value ([3]; mouse plasma)?
**A.** above 93%

**Q.** And the “RCP after 240 min” value ([3]; oxalic acid (0.01 M))?
**A.** above 93%

**Q.** What about the Blood uptake ([4]; 90 min after i.v. injection) of the same compound?
**A.** 0.81 ± 0.22 %ID/g

**Q.** And the Fat uptake ([4]; 90 min after i.v. injection)?
**A.** 0.13 ± 0.10 %ID/g

**Q.** And the Heart uptake ([4]; 90 min after i.v. injection)?
**A.** 0.26 ± 0.06 %ID/g

**Q.** What about the Kidney uptake ([4]; 90 min after i.v. injection) of the same compound?
**A.** 1.32 ± 0.47 %ID/g

**Q.** What about the Large intestine uptake ([4]; 90 min after i.v. injection) of the same compound?
**A.** 0.20 ± 0.13 %ID/g

**Q.** What about the Liver uptake ([4]; 90 min after i.v. injection) of the same compound?
**A.** 0.43 ± 0.11 %ID/g

**Q.** And the Lung uptake ([4]; 90 min after i.v. injection)?
**A.** 0.49 ± 0.08 %ID/g

**Q.** What about the Muscle uptake ([4]; 90 min after i.v. injection) of the same compound?
**A.** 0.10 ± 0.03 %ID/g

**Q.** What about the Small intestine uptake ([4]; 90 min after i.v. injection) of the same compound?
**A.** 0.25 ± 0.10 %ID/g

**Q.** What about the Spleen uptake ([4]; 90 min after i.v. injection) of the same compound?
**A.** 0.29 ± 0.14 %ID/g

**Q.** And the Stomach uptake ([4]; 90 min after i.v. injection)?
**A.** 0.21 ± 0.04 %ID/g

**Q.** What about the Urine uptake ([4]; 90 min after i.v. injection) of the same compound?
**A.** 65.94 ± 5.21 %ID/g

**Q.** What about the Blood uptake ([4]; 240 min after i.v. injection) of the same compound?
**A.** 0.65 ± 0.11 %ID/g

**Q.** What about the Fat uptake ([4]; 240 min after i.v. injection) of the same compound?
**A.** 0.12 ± 0.08 %ID/g

**Q.** And the Heart uptake ([4]; 240 min after i.v. injection)?
**A.** 0.22 ± 0.04 %ID/g

**Q.** And the Kidney uptake ([4]; 240 min after i.v. injection)?
**A.** 1.21 ± 0.17 %ID/g

**Q.** What about the Large intestine uptake ([4]; 240 min after i.v. injection) of the same compound?
**A.** 0.15 ± 0.06 %ID/g

**Q.** What about the Liver uptake ([4]; 240 min after i.v. injection) of the same compound?
**A.** 0.37 ± 0.10 %ID/g

**Q.** And the Lung uptake ([4]; 240 min after i.v. injection)?
**A.** 0.46 ± 0.09 %ID/g

**Q.** And the Muscle uptake ([4]; 240 min after i.v. injection)?
**A.** 0.06 ± 0.03 %ID/g

**Q.** And the Small intestine uptake ([4]; 240 min after i.v. injection)?
**A.** 0.14 ± 0.04 %ID/g

**Q.** What about the Spleen uptake ([4]; 240 min after i.v. injection) of the same compound?
**A.** 0.32 ± 0.18 %ID/g

**Q.** And the Stomach uptake ([4]; 240 min after i.v. injection)?
**A.** 0.22 ± 0.06 %ID/g

**Q.** And the Urine uptake ([4]; 240 min after i.v. injection)?
**A.** 17.08 ± 7.97 %ID/g

**Q.** And the “uptake (SUV) in liver, spleen, kidney, intestines, lung, heart and brain compared with [^44Sc]Sc(DO3AM-NI)” value [5]?
**A.** significantly (p ≤ 0.01) higher

**Q.** And the “octanol/water partition coefficient (logP)” value [6]?
**A.** −3.89
